Test results reported in article PMC10467082, “Anti-Toxoplasma gondii Effects of Lipopeptide Derivatives of Lycosin-I” (Toxins, 2023).
“Also recorded” adds a separate entry of the source. Square brackets hold non-standard residues; d marks the D form. Ends that are not written are not given here. Peptide text beside a SMILES is read from it. * marks the point of attachment. Lauroyl = CCCCCCCCCCCC(=O)*; Ahx = NCCCCCC(=O)O

Key:
[1] = system: human foreskin fibroblasts (HFFs); test: CCK-8 cell viability assay on host cells; assay type: cell-based; conditions: CCK-8, HFFs, 24 h; for IC50: 80-1.25 μM twofold dilution, three independent experiments, read-out: half-inhibitory concentration (IC50) on HFF viability; for cytotoxicity to HFFs: comparison with Lycosin-I where stated
Description: HFF cells were seeded in 96-well plates (1 × 10^4 cells per well). After 24 h of incubation, the previous complete medium was removed and replaced with the new complete medium containing different concentrations (80–1.25 μM, twofold serial dilution) of lipopeptides. Cells were treated with the complete medium in one well as the control group (each group was set up with three wells). After 24 h, 10 μL of CCK-8 reagent was added to each well and then incubated for 2 h. The absorbance value was measured at 450 nm using a microplate reader. Three independent experiments were carried out.

T. gondii tachyzoites [2] = test: Serum stability assay: serum incubation followed by trypan blue assay; assay type: in vitro ADME, Toxoplasma gondii; conditions: 100 μM in PBS containing 10% fetal bovine serum, 37 °C, 24 h; read-out tachyzoite mortality by trypan blue; three independent experiments
Description: (§1) To evaluate the difference of anti-T. gondii in the vitro between lipopeptides and Lycosin-I, we set up different concentration gradients, including 2.5 μM, 5 μM, 10 μM, 20 μM and 40 μM. The freshly obtained tachyzoites (3 × 10^6) were incubated with different concentrations of lipopeptides and PBS at room temperature for 2 h, then centrifuged at 3000 rbp for 8 min and the supernatant was discarded. The tachyzoite pellet was resuspended in PBS and mixed well. Then, the tachyzoite suspension was stained with 0.4% trypan blue staining solution for 5 min. Tachyzoite viability was observed under a light microscope (Motic China Group Co., Ltd., Xiamen, China), and five fields were randomly selected to calculate tachyzoite mortality. Three independent experiments were carried out.
A combination of serum incubation and a trypan blue assay was used to investigate whether or not the anti-Toxoplasma activity of lipopeptides and Lycosin-I was affected by serum. Briefly, stock solutions (1 mM) of Lycosin-I, L-C12 and L-an were diluted into 100 μM solutions in PBS containing 10% fetal bovine serum, and incubated at 37 °C for 24 h. Fresh tachyzoites were then treated with these solutions as described in the method in Section 5.3 for lipopeptide screening. Three independent experiments were carried out.

[3] = mouse serum (b5) / 10% serum, 24 h, mass spectrometry; cited from earlier work
Text: Cationic peptides with an α-helical structure found in venoms constitute a class of antimicrobial peptides (AMPs). In this class, amphiphilic peptides with net positive charges tend to adopt an α-helix structure when in contact with a hydrophilic/hydrophobic interface (such as the membrane of microorganisms), which helps the AMPs to insert into the cell membrane and disrupt the integrity of the cell membrane. Phospholipids on cell membranes are one of the targets of transmembrane peptides with an α -helical structure. […] The serum stability of Lycosin-I was in ...

[4] = system: T. gondii tachyzoites (RH strain); test: Trypan blue assay of tachyzoite mortality (lipopeptide screening); assay type: cell-based, Toxoplasma gondii; conditions: 2.5, 5, 10, 20, 40 μM, 2 h at room temperature
Description: as §1

RH strain of T. gondii = assay type: in vivo, mouse; conditions: BALB/c mice, 1 × 10^3 tachyzoites i.p.; 4 mg/kg/day i.p. for 7 days; monitored 15 days; n = 8
Description: To evaluate the anti-T. gondii effect of lipopeptides in vivo, we established a mouse model acutely infected with the RH strain of T. gondii. Forty 8-week-old female BALB/c mice weighing 17–19 g were randomly divided into 5 groups (n = 8 per group) and intraperitoneally injected with 1 × 10^3 tachyzoites per mouse. Lycosin-I, L-C12, L-an and sulfadiazine (SDZ) were dissolved in PBS, respectively. As these peptides are small linear peptides that are easily degraded by pepsin; mice were treated with these peptides via intraperitoneal injection (the same way that the mice were infected with T. gondii) rather than oral gavage. After 4 h of infection, mice were traperitoneally injected with 4 mg/kg of Lycosin-I, L-C12, L-an and sulfadiazine solution (once a day) for 7 days. Mice in the negative control group were treated with PBS. Mice in this condition observed daily and the time of death was recorded. The experiment was approved by the Ethics Committee of the School of Basic Medicine of Central South University (approval number: 2021-KT24).

T. gondii tachyzoites [5] = test: Intracellular proliferation assay of tachyzoites in HFFs; assay type: cell-based, Toxoplasma gondii; conditions: 10 μM, 24 h
Description: HFFs were seeded in 24-well plates (1 × 10^5 cells per well) with 14 mm coverslips and incubated for 24 h. The HFFs were infected with fresh tachyzoites at a MOI of 5 for 2 h. The HFFs were then washed twice with PBS to remove extracellular tachyzoites and then treated with Lycosin-I (5 μM, 10 μM), L-C12 (5 μM, 10 μM), L-an (5 μM, 10 μM), SDZ (10 μM, positive control) and DMEM (negative control) for 24 h each. The HFFs were then washed twice with PBS, fixed with methanol for 5 min, and then stained with Giemsa for 15 min. The coverslips were observed under a light microscope to count the number of tachyzoites in 100 parasitophorous vacuoles (PVs). Three independent experiments were carried out.

T. gondii tachyzoites [6] = test: Invasion assay of tachyzoites into HFFs; assay type: cell-based, Toxoplasma gondii; conditions: tachyzoites pretreated 2 h at 10 μM, HFFs infected MOI 5 for 2 h
Description: The HFF cells were seeded in 24-well plates with 14 mm coverslips (1 × 10^5 cells per well) and incubated for 24 h. Fresh tachyzoites were obtained aseptically from the peritoneal fluid of the KM mouse acutely infected with T. gondii. The tachyzoites were treated with Lycosin-I (5 μM, 10 μM), L-C12 (5 μM, 10 μM), L-an (5 μM, 10 μM), SDZ (10 μM, positive control) and DMEM (negative control) for 2 h each. The HFFs were then infected with pre-treated tachyzoites at a multiplicity of infection (MOI) of 5 (tachyzoites/cells = 5). After 2 h, the previous complete medium was removed and the HFFs were washed twice with PBS to remove extracellular tachyzoites. They were then fixed with methanol for 5 min, and then stained with Giemsa for 15 min. The coverslips were examined under a light microscope. The invasion rate of tachyzoites was calculated by counting the number of cells invaded by tachyzoites and the total number of cells in 5 randomly selected fields. Three independent experiments were carried out.

TNF-α = assay type: in vivo, mouse; conditions: 4 mg/kg, after 5 days of treatment, qRT-PCR
Description: (§2) Once T. gondii has infected a host, a number of inflammatory responses can be induced in the host to resist T. gondii invasion and proliferation. Therefore, we wanted to investigate the expression levels of anti-inflammatory and pro-inflammatory factors in the mice treated with lipopeptides. The expression levels of IFN-γ, TNF-α, IL-4 and IL-10 in the spleen tissues of mice after 5 days of treatment were determined via qRT-PCR (Figure 5). […] Compared to the PBS group, all treatment groups promoted the upregulation of the pro-inflammatory cytokines IFN-γ and TNF-α and the anti-inflammatory cytokine IL-4.
(§3) Total RNA was extracted from each sample using Total RNA Isolation Kit (ENOVA BIO Co., Ltd., Wuhan, China), in accordance with the manufacturer’s instructions. Reverse transcription of RNA into cDNA was performed using the PerfectStart Uni RT&qPCR Kit (TransGen Biotech Co., Ltd., Beijing, China) in accordance with the instructions. cDNA was used as a template for qRT-PCR using PerfectStart Uni RT&qPCR Kit (TransGen Biotech Co., Ltd., Beijing, China). Primers, listed in Table 2, were designed and synthesized by a biotechnology company (Sangon Biotech Co., Ltd., Shanghai, China). Analysis was performed using the comparative threshold cycle method (2^−∆∆Ct). The gene expression levels of genes were normalized to those of housekeeping genes (β-actin or GAPDH).

IL-4 = assay type: in vivo, mouse; conditions: 4 mg/kg, after 5 days of treatment, qRT-PCR
Description: as §2, §3

IL-10 = assay type: in vivo, mouse; conditions: 4 mg/kg, after 5 days of treatment, qRT-PCR
Description: as §2, §3

IFN-γ = assay type: in vivo, mouse; conditions: 4 mg/kg, after 5 days of treatment, qRT-PCR
Description: as §2, §3

T. gondii tachyzoites [7] = assay type: cell-based, Toxoplasma gondii; conditions: 10 μM, 7 days, 500 tachyzoites per well, HFFs
Description: The HFF cells were seeded in 6-well plates (1 × 10^6 cells per well) and incubated for 48–72 h. Cells in the 6-well plates were infected with 500 fresh tachyzoites per well for 2 h. The well in which cells were not infected with tachyzoites was considered the blank control group. Cells infected with tachyzoites were then treated with Lycosin-I (10 μM), L-C12 (10 μM), L-an (10 μM), SDZ (10 μM, positive control) and DMEM (negative control), respectively. After 7 days, HFFs in the plates were washed twice with PBS, fixed with methanol for 5 min, and then stained with crystal violet for 20 min. Six-well plates were washed with running water, dried, photographed, and then the number and area of plaques were counted using Photoshop version 2020. Three independent experiments were carried out.

In the case of `CCCCCCCCCCCC(=O)N[C@@H](CCCCN)C(=O)NCC(=O)N[C@@H](Cc1c[nH]c2ccccc12)C(=O)N[C@@H](Cc1ccccc1)C(=O)N[C@@H](CCCCN)C(=O)N[C@@H](C)C(=O)N[C@@H](CCSC)C(=O)N[C@@H](CCCCN)C(=O)N[C@@H](CO)C(=O)N[C@H](C(=O)N[C@@H](C)C(=O)N[C@@H](CCCCN)C(=O)N[C@@H](Cc1ccccc1)C(=O)N[C@H](C(=O)N[C@@H](C)C(=O)N[C@@H](CCCCN)C(=O)N[C@@H](CCC(=O)O)C(=O)N[C@@H](CCCCN)C(=O)N[C@@H](CC(C)C)C(=O)N[C@@H](CCCCN)C(=O)N[C@@H](CCC(=O)O)C(=O)N[C@@H](Cc1c[nH]cn1)C(=O)N[C@@H](CC(C)C)C(=O)O)[C@@H](C)CC)[C@@H](C)CC` [L-C12] (Lauroyl-KGWFKAMKSIAKFIAKEKLKEHL-OH), the IC50 [1] is reported as 15.6 µM.

For `CCCCCCCCCCCC(=O)N[C@@H](CCCCN)C(=O)NCC(=O)N[C@@H](Cc1c[nH]c2ccccc12)C(=O)N[C@@H](Cc1ccccc1)C(=O)N[C@@H](CCCCN)C(=O)N[C@@H](C)C(=O)N[C@@H](CCSC)C(=O)N[C@@H](CCCCN)C(=O)N[C@@H](CO)C(=O)N[C@H](C(=O)N[C@@H](C)C(=O)N[C@@H](CCCCN)C(=O)N[C@@H](Cc1ccccc1)C(=O)N[C@H](C(=O)N[C@@H](C)C(=O)N[C@@H](CCCCN)C(=O)N[C@@H](CCC(=O)O)C(=O)N[C@@H](CCCCN)C(=O)N[C@@H](CC(C)C)C(=O)N[C@@H](CCCCN)C(=O)N[C@@H](CCC(=O)O)C(=O)N[C@@H](Cc1cnc[nH]1)C(=O)N[C@@H](CC(C)C)C(=O)O)[C@@H](C)CC)[C@@H](C)CC` [L-C12] (Lauroyl-KGWFKAMKSIAKFIAKEKLKEHL-OH), the “anti-T. gondii activity after serum treatment compared to control untreated with serum” value (T. gondii tachyzoites [2]) is listed as “no significant difference; also recorded: retained substantial anti-T. gondii activity”, the “degradation after incubation in serum” value [3] is listed as “not degraded” and the “cytotoxicity to HFFs” value [1] is listed as “higher cytotoxicity”.

In the case of `CC[C@H](C)[C@H](NC(=O)[C@H](Cc1ccccc1)NC(=O)[C@H](CCCCN)NC(=O)[C@H](C)NC(=O)[C@@H](NC(=O)[C@H](CO)NC(=O)[C@H](CCCCN)NC(=O)[C@H](CCSC)NC(=O)[C@H](C)NC(=O)[C@H](CCCCN)NC(=O)[C@H](Cc1ccccc1)NC(=O)[C@H](Cc1c[nH]c2ccccc12)NC(=O)CNC(=O)[C@H](CCCCN)NC(=O)CCCCCN)[C@@H](C)CC)C(=O)N[C@@H](C)C(=O)N[C@@H](CCCCN)C(=O)N[C@@H](CCC(=O)O)C(=O)N[C@@H](CCCCN)C(=O)N[C@@H](CC(C)C)C(=O)N[C@@H](CCCCN)C(=O)N[C@@H](CCC(=O)O)C(=O)N[C@@H](Cc1c[nH]cn1)C(=O)N[C@@H](CC(C)C)C(=O)O` [L-an] (H-[Ahx]KGWFKAMKSIAKFIAKEKLKEHL-OH), the “anti-T. gondii activity after serum treatment compared to control untreated with serum” value (T. gondii tachyzoites [2]) is reported as “no significant difference; also recorded: retained substantial anti-T. gondii activity”, the IC50 [1] is reported as 30.9 µM and the “cytotoxicity to HFFs” value [1] is reported as “no significant difference”.

With `NCCCCCC(=O)O` [aminocaproic acid] the “anti-T. gondii activity in vitro (tachyzoite mortality)” value [4] was “no effect”.

With “H-KGWFKAMKSIAKFIAKEKLKEHL-OH [Lycosin-I]” the “survival time of mice compared to control group” value (RH strain of T. gondii) was “significantly prolonged the survival time”, the “proliferation rate of tachyzoites in HFFs (negative group = 100%)” value (T. gondii tachyzoites [5]; HFFs infected at MOI 5) was “below 55%” and the “PVs with 16 tachyzoites” value (T. gondii tachyzoites [5]; proportion in 100 PVs) was “hard to see a PV with 16 tachyzoites”. For the same compound, the “inhibition of tachyzoite invasion compared with SDZ” value (T. gondii tachyzoites [6]) was “more pronounced inhibition than SDZ”, the “expression of TNF-α in spleen compared to PBS group” value (TNF-α) was “promoted the expression” and the “expression of IL-4 in spleen compared to PBS group” value (IL-4) was “promoted IL-4 expression”. The “expression of IL-10 in spleen compared to PBS group” value (IL-10) was “inhibited the upregulation of IL-10”, the “expression of IFN-γ in spleen compared to PBS group” value (IFN-γ) was “promoted the expression” and the “number and area of plaques in contrast with DMEM group” value (T. gondii tachyzoites [7]) was “significantly reduced”. The “plaques compared to DMEM group” value (T. gondii tachyzoites [7]) was “reduced”.

With KGWFKAMKSIAKFIAKEKLKEHL [Lycosin-I] the “anti-T. gondii activity after serum treatment compared to control untreated with serum” value (T. gondii tachyzoites [2]) was “significantly had reduced anti-T. gondii activity; also recorded: only slightly decreased” and the “cytotoxicity to HFFs” value [1] was “concentration-dependent cytotoxicity”.
